Measured values as given in PMC12296639, “Synthesis and Bioactivity Investigation of Novel 2-({2-[(Dialkylamino) Methyl] Quinazolin-4-one-3-yl} Methyl) Benzonitrile Derivatives as Dipeptidyl Peptidase-4 Inhibitory Agent” (Iranian Journal of Pharmaceutical Research : IJPR, 2025).

What follows are compounds tested against T1, DPP-4 (Homo sapiens, UniProt P27487) (assay: in vitro DPP-4 inhibitory activity assay (DPP-4 inhibitor screening kit MAK203)). Conditions: fluorescence assay kit, 37°C; IC50 from linear equation of inhibition % vs concentration.
T1 construct: purchased MAK203
Type: biochemical
Procedure: The in vitro DPP-4 inhibitory activity of the prepared compounds was evaluated using the DPP-4 inhibitor screening kit (MAK203) according to the test protocol with slight modifications ([17]). […] Substrate solutions (25 μL) were added to each well, covered, and incubated at 37°C for 30 minutes. […] The following formula was used to calculate the percent inhibition (Equation 1):
Inhibition %= (initial activity-inhibitor activity)/initial activity×100 %
The IC50 value was calculated from y = a + bx (linear equation) obtained from the relation of the inhibition activity (%) (y) and the concentration (x) of the substance being measured.

T1 sequence (P27487 whole entry): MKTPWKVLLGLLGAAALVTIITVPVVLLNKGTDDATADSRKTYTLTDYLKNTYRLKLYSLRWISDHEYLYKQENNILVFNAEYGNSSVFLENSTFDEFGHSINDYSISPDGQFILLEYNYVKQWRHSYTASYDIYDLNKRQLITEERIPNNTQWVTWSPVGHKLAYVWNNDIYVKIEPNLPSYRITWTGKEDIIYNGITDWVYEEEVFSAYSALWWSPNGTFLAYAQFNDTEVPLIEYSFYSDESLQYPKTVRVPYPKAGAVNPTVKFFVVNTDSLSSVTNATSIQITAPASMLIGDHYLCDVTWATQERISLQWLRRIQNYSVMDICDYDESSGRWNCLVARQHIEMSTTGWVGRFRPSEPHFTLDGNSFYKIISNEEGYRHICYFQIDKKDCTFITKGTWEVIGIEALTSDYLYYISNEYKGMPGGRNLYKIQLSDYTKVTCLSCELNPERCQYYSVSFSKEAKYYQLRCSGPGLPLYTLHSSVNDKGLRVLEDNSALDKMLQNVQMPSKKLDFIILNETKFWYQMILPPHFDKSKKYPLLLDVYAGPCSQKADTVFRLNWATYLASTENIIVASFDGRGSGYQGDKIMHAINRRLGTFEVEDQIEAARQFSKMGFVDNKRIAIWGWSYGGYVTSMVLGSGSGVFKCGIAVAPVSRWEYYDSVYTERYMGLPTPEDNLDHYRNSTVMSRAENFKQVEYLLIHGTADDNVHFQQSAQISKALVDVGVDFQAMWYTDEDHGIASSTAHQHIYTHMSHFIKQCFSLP

IC50 | SMILES
4.92 µM | CN(C)Cc1nc2ccccc2c(=O)n1Cc1ccccc1C#N [5a, 2-({2-[Dimethylaminomethyl]quinazolin-4-one-3-yl}methyl)benzonitrile]
5.29 µM | CCN(CC)Cc1nc2ccccc2c(=O)n1Cc1ccccc1C#N [5b, 2-({2-[Diethylaminomethyl]quinazolin-4-one-3-yl}methyl)benzonitrile]
6.78 µM | CCCCN(CCCC)Cc1nc2ccccc2c(=O)n1Cc1ccccc1C#N [5c, 2-({2-[Dibutylaminomethyl]quinazolin-4-one-3-yl}methyl)benzonitrile]
1.46 µM | N#Cc1ccccc1Cn1c(CN2CCOCC2)nc2ccccc2c1=O [5d, 2-({2-[Morpholinomethyl]quinazolin-4-one-3-yl}methyl)benzonitrile]
3.07 µM | N#Cc1ccccc1Cn1c(CN2CCCC2)nc2ccccc2c1=O [5e, 2-({2-[Pyrrolidinomethyl]quinazolin-4-one-3-yl}methyl)benzonitrile]
3.56 µM | CN1CCN(Cc2nc3ccccc3c(=O)n2Cc2ccccc2C#N)CC1 [5f, 2-({2-[N-methylpiperazinomethyl]quinazolin-4-one-3-yl}methyl)benzonitrile]
